Assays:
Format in all cases: in vivo, mouse
[1] = system: IgE antibody; test: Serum IgE antibody ELISA, bronchial asthma mice; details: OVA bronchial asthma; serum day 28; oral 10 mg/kg (dexamethasone 2 mg/kg); control 73, vehicle 117
Experimental: (§1) A 0.2 mL dose of 50 μg ovalbumin (OVA) and 2 mg Alum mixture was administered to 6-week-old female Balb/c mice (Japan SLC Inc.) (day 0 of the example). Alum was used as an adjuvant. Seven days later and 14 days later, the Balb/c mice were immunized again with 0.2 mL injections of the above mixture. Starting on day 20, mice were orally treated with 10 mg/kg of norathyriol, 10 mg/kg of mangiferin 8a, 10 mg/kg of tofacitinib (JAK inhibitor), 2 mg/kg of dexamethasone (steroid) and 10 mg/kg of olopatadine (antihistamine) daily for 8 consecutive days. Starting on day 21, 400 μg OVA was administered intranasally, and cough was measured on day 27. Note that tofacitinib, dexamethasone, and olopatadine are currently in clinical use in allergic rhinitis and were used as control drugs in this example.
Serum was collected from day 28 mice in Examples 14, and IgE antibody production was measured by enzyme-linked immunosorbent assay (ELISA). This assay was performed using a mouse IgE antibody ELISA kit (R&D).

[2] = system: BAFF; test: Serum BAFF ELISA, bronchial asthma mice; details: OVA bronchial asthma; serum day 28; oral 10 mg/kg (dexamethasone 2 mg/kg); control 97, vehicle 1319
Experimental: as §1, with “Note that tofacitinib, dexamethasone, and olopatadine are currently in clinical use in allergic rhinitis and were used as control drugs in this example.” left out
Serum was collected from day 28 mice in Examples 14, and BAFF production was measured by enzyme-linked immunosorbent assay (ELISA). This assay was performed using a mouse BAFF ELISA kit (R&D).

[3] = system: IL-4; test: Serum IL-4 ELISA, food allergy mice; details: OVA food allergy; serum day 28; oral 10 mg/kg (dexamethasone 2 mg/kg); control 210, vehicle 1154
Experimental: (§2) A 0.2 mL dose of 10 μg ovalbumin (OVA) and 1 mg Alum mixture was administered to 6-week-old female Balb/c mice (Japan SLC Inc.) (day 0 of the example). Alum was used as an adjuvant. Seven days later, the Balb/c mice were immunized again with a 0.2 mL injection of the above mixture. Starting on day 14, mice were orally treated with 10 mg/kg of norathyriol, 10 mg/kg of mangiferin 8a, 10 mg/kg of tofacitinib (JAK inhibitor), 2 mg/kg of dexamethasone (steroid) and 10 mg/kg of olopatadine (antihistamine) daily for 14 consecutive days. Starting on day 14, 10 mg OVA was administered orally every other day […], and the frequency of diarrhea was measured after the final administration on day 28. Note that tofacitinib, dexamethasone, and olopatadine are currently in clinical use in food allergy and were used as control drugs in this example.
Serum was collected from day 28 mice in Examples 21, and IL-4 production was measured by enzyme-linked immunosorbent assay (ELISA). This assay was performed using a mouse IL-4 ELISA kit (R&D).

[4] = system: BAFF; test: Serum BAFF ELISA, food allergy mice; details: OVA food allergy; serum day 28; oral 10 mg/kg (dexamethasone 2 mg/kg); control 134, vehicle 845
Experimental: as §2
Serum was collected from day 28 mice in Examples 21, and BAFF production was measured by enzyme-linked immunosorbent assay (ELISA). This assay was performed using a mouse BAFF ELISA kit (R&D).

[5] = system: Balb/c mice with cedar pollinosis; test: Sneezing, cedar pollinosis model mice; details: oral daily 8 days from day 20, 10 mg/kg (dexamethasone 2 mg/kg), measured day 27, vs vehicle group
Experimental: (§3) A 0.2 mL dose of 100 μg cedar pollen and 1 mg Alum mixture was administered to 6-week-old female Balb/c mice (Japan SLC Inc.) (day 0 of the example). Alum was used as an adjuvant. Seven days later and 14 days later, the Balb/c mice were immunized again with 0.2 mL injections of the above mixture. Starting on day 20, mice were orally treated with 10 mg/kg of norathyriol, 10 mg/kg of mangiferin 8a, 10 mg/kg of tofacitinib (JAK inhibitor), 2 mg/kg of dexamethasone (steroid) and 10 mg/kg of olopatadine (antihistamine) daily for 8 consecutive days. Starting on day 21, 500 μg cedar pollen was administered intranasally, and sneezing was measured on day 27. Note that tofacitinib, dexamethasone, and olopatadine are currently in clinical use in cedar pollinosis and were used as control drugs in this example.
(§4) The group that was just immunized with cedar pollen is called the subject group, the one that received norathyriol is called the norathyriol group, the one that received mangiferin 8a is called the mangiferin 8a group, the one that received tofacitinib is called the tofacitinib group, the one that received dexamethasone is called the dexamethasone group, and the one that received olopatadine is called the olopatadine group. Each group consisted of five animals.

[6] = system: IgE antibody; test: Serum IgE antibody ELISA, cedar pollinosis mice; details: serum day 28, oral 10 mg/kg (dexamethasone 2 mg/kg), control 71, vehicle 207
Experimental: as §3, with “nose-scratching behavior” for “sneezing”
Serum was collected from day 28 mice in Examples 28 and 29, and IgE antibody production was measured by enzyme-linked immunosorbent assay (ELISA). This assay was performed using a mouse IgE antibody ELISA kit (R&D).

[7] = system: Balb/c mice with cedar pollinosis; test: Nose scratching behavior, cedar pollinosis model mice; details: oral daily 8 days from day 20, 10 mg/kg (dexamethasone 2 mg/kg), measured day 27, vs vehicle group
Experimental: as §3, with “nose-scratching behavior” for “sneezing”
as §4

SMILES	amount of IgE antibody [1] [ng/mL]	amount of BAFF [2] [pg/mL]	amount of IL-4 [3] [pg/mL]	amount of BAFF [4] [pg/mL]	number of sneezing [5]	amount of IgE antibody [6] [ng/mL]	number of nose scratches [7]
CN(C)CC/C=C1/c2ccccc2COc2ccc(CC(=O)O)cc21 [olopatadine]	126	1304	1054	715	significantly decreased the number of sneezing	218	significantly decreased the number of nose scratches
C[C@@H]1C[C@H]2[C@@H]3CCC4=CC(=O)C=C[C@]4(C)[C@@]3(F)[C@@H](O)C[C@]2(C)[C@@]1(O)C(=O)CO [dexamethasone]	34	321	415	251		154	
O=c1c2cc(O)c(O)cc2oc2cc(O)cc(O)c12 [norathyriol, 1,3,6,7-tetrahydroxyxanthone]	88	649	694	426	significantly decreased the number of sneezing	156	significantly decreased the number of nose scratches
C[C@@H]1CCN(C(=O)CC#N)C[C@@H]1N(C)c1ncnc2[nH]ccc12 [tofacitinib]	101	902	1015	598	significantly decreased the number of sneezing	185	significantly decreased the number of nose scratches

Source: patent publication US20260007634A1, “PHARMACEUTICAL COMPOSITIONS FOR THE TREATMENT OF ALLERGIC DISEASES” (KINKI UNIVERSITY, priority 2022, published 2026)
